In a melting point compilation (Tetko et al.):

SMILES | melting point [°C]
Cc1cc(C)c2cc(C)ccc2c1 | 12
Cc1nc(CO)cs1 | 50
CCOc1cccc(NC(C)=O)c1 | 97
CCC1(C)CC(=O)NC1=O (configuration not stated) | 65
CC(C)CCCC(C)C1CCC2C3CC=C4CC(OC(=O)Cc5ccc(N(CCCl)CCCl)cc5)CCC4(C)C3CCC12C (configuration not stated) | 90
CCCCCC(=O)c1ccc(O)cc1O | 57
CC12CCC(C(C(Br)N(O)c3ccccc3)C1=O)C2(C)C (configuration not stated) | 121
CC(=O)c1ccc(-c2ccc(C(C)=O)cc2)cc1 | 192 to 196
CC(O[S+]([O-])C(C)(C)C)C(O)(c1ccccc1)c1ccccc1 (configuration not stated) | 135 to 137
Cc1cccc(C(=O)O)n1 | 130
CCN(C(=O)n1nnn(-c2ccccc2Cl)c1=O)C1CCCCC1 | 79
O=C(Oc1c(F)c(F)c(F)c(F)c1F)c1ccc(-c2cccs2)nc1 | 140 to 142
Cc1cccc(C)c1NC(=O)CN1CCN(CCCC(c2ccc(F)cc2)c2ccc(F)cc2)CC1 | 159
NC(=O)Nc1ccc(Cl)cc1 | 206
O=C=Nc1cccc(C(F)(F)F)c1 | -26
O=c1[nH]nc2oc3ccccc3cc1-2 | 220
COC(=O)NN=Cc1c[n+]([O-])c2ccccc2[n+]1[O-] | 239
CC(=O)Nc1ccc(C#N)cc1OC(F)(F)F | 118 to 120
O=Cc1cccc(Br)n1 | 81
Cc1ccsc1C=CC1=NCCCN1C | 240
Cc1nc(-c2ccccc2)c(C(=O)O)s1 | 201 to 203
NC(c1ccccc1)(c1ccccc1)c1ccccc1 | 102
O=C(O)[C@H]1NCC[C@@H]1O | 235
Cc1ccc(S(=O)(=O)OCC(F)(F)F)cc1 | 40
Nc1ccc(S(=O)(=O)Nc2ccnn2-c2ccccc2)cc1 | 181
CCCC(=O)CCC | -33

SMILES | melting point [°C]
CCC(O)c1cc(C)ccc1O (configuration not stated) | 143
COC(=O)C(C#N)=Cc1cc(Br)c(O)c(OC)c1 | 200
CCCCCC(O)CC (racemic) | -16
O=[N+]([O-])c1cc(C(F)(F)F)ccc1CCl | 44
COC(=O)c1ccc(C)c(OC)c1 | 49
C[C@]12CCC(=O)C[C@@H]1CC[C@@H]1[C@@H]2CC[C@]2(C)C(=O)CC[C@@]12O | 225 to 227
CC(C)(Oc1ccc(Cl)cc1)C(=O)OCCCOC(=O)C(C)(C)Oc1ccc(Cl)cc1 | 52
Oc1ccc(C(O)C2CCCCN2)cc1O (configuration not stated) | 204
N#CC1(c2ccc(Cl)cc2Cl)CC1 | 81 to 85
CCCCc1ccc(NC(=O)c2ccc(OC)cc2)cc1 | 146 to 148
c1ccc2c(c1)-c1nc3ccccc3nc1-2 | 203
CCc1cc(Cc2cc(CC)cc(C(C)(C)C)c2O)c(O)c(C(C)(C)C)c1 | 120
O=Cc1cccc2cccc([N+](=O)[O-])c12 | 125
Cn1c(=O)c(C2=NNC(=O)C2=Cc2cccc([N+](=O)[O-])c2)c(O)c2ccccc21 | 261
Cc1nc(-c2ccccc2)ncc1C=O | 101 to 103
Nc1ccc(Cl)nc1 | 83
O=c1c(Cl)c(SCc2ccccc2)cnn1-c1ccccc1 | 138 to 140
Cn1c(C(C#N)c2ncccc2[N+](=O)[O-])nc2ccccc21 (configuration not stated) | 214
CC(=O)Oc1nn(-c2ccc(Br)cc2)cc1Br | 77
CCN(CC)c1ccc(C=O)c(O)c1 | 62
Cc1cc(N)ccc1F | 35 to 37
CCc1ccccc1Cc1ccccc1 | -11
CCCCCCCC(C)=O | -7.5
O=C(O)c1cccc(Br)c1F | 169
CC=CC=C(C)C | -74.2
O=C(OCc1ccccc1Br)ON1C(=O)CCC1=O | 107

SMILES | melting point [°C]
Nc1ccc2[nH]nnc2c1 | 160
CCOC(=O)C(C#N)=c1sc(=C(C#N)C(=O)OCC)s1 | 159 to 162
NN1C(=O)CSC1=S | 102
CCCC(/C=C1\C(=O)C2(C)CCC1C2(C)C)(/C=C1\C(=O)C2(C)CCC1C2(C)C)C(=O)OCC (configuration not stated) | 161
O=C(Oc1c(-c2ccccc2)[nH]c2cc([N+](=O)[O-])ccc12)c1ccccc1 | 229
CCP(CC)CC | -88
CC(C)c1cc(Oc2ccccc2)cc(C(C)C)c1NC(=S)NC(C)(C)C | 146
CCCCc1cc2ccccc2c(OCCN(C)C)n1 | 146
CCCN(CCC)c1c([N+](=O)[O-])cc(C(F)(F)F)c(N)c1[N+](=O)[O-] | 124
O=C(O)CN1C(=O)c2ccccc2C1=O | 195 to 198
Cn1c(=O)on(-c2ccc(Cl)c(Cl)c2)c1=O | 123
NC(Cc1ccc(N(CCCl)CCCl)cc1)C(=O)O (configuration not stated) | 182
C=C(C)C1CCC2(C)CCC3(C)C(CCC4C5(C)CCC(O)C(C)(C)C5CCC43C)C12 (configuration not stated) | 216
Oc1ccccc1/C=N/n1c(-c2ccccc2)n[nH]c1=S | 209 to 210
COc1ccc(-c2ccc(S(=O)(=O)NC(C(=O)O)C(C)C)cc2)cc1 (configuration not stated) | 178
C=CC1(OC(C)=O)CCC2(C)C(CCC3C2CCC2(C)C3CCC23OCCO3)C1 (configuration not stated) | 101 to 109
Nc1cccnc1Cl | 78
COc1cc(Cl)c(Cl)c(Cl)c1OC | 66
N#CSCc1c(Cl)cccc1Cl | 39 to 42
C(=Cc1ccc2ccc3ccccc3c2c1)c1ccc2ccccc2c1 | 213
CC(=O)/C(=N\Nc1cccc([N+](=O)[O-])c1)C(=O)C(F)(F)F | 205 to 206
ClCc1c(Cl)cccc1Cl | 38
O=C(NC(Cc1ccsc1)C(=O)O)OCC1c2ccccc2-c2ccccc21 (configuration not stated) | 188
COc1ccccc1/C=C/C(=O)O | 185
FC1(F)C(F)(F)C(F)(F)C2(F)C(F)(F)C(F)(F)C(F)(F)C(F)(F)C2(F)C1(F)F (configuration not stated) | -10
O=C(O)C=Cc1ccc(-c2ccc(F)cc2F)o1 | 218 to 220

SMILES | melting point [°C]
OCc1ccc(-c2cc(C(F)(F)F)cc(C(F)(F)F)c2)o1 | 110 to 113
O=C(c1ccccc1)c1noc(-c2ccc([N+](=O)[O-])cc2)c1S(=O)(=O)c1ccccc1 | 165
Nc1cccc(C2OCCCO2)c1 | 75 to 76
BrCCOc1ccccc1 | 39
O=[N+]([O-])c1c(N2CCCCC2)cc(Cl)c2nonc12 | 159 to 161
ClCc1ccc(CCl)cc1 | 100
N#Cc1ccc2c(c1)N(CCCN1CCC(O)CC1)c1ccccc1S2 | 116
COc1ccc(Br)c2c1C(=NNc1ccc([N+](=O)[O-])cc1[N+](=O)[O-])C2 | 288 to 289
C[C@H](CC=C(c1ccccc1)c1ccccc1)[C@H]1CC[C@H]2[C@@H]3C(O)CC4CC(O)CC[C@]4(C)[C@H]3CC(O)[C@]12C (some centres not stated) | 220
O=CNC1CCCCC1 | 39.5
O=C(c1ccc2ccccc2c1)C(O)c1ccccc1 (configuration not stated) | 152
Cc1nc(-c2cc(CO)no2)cs1 | 120
COC(=O)c1cc(C)ccc1O | -1
O=C1OC(c2ccccc2)=NC1=Cc1ccc([N+](=O)[O-])cc1 | 214 to 215
COC(=O)c1sccc1-n1cccc1 | 61
C=C1c2cc(OC)c(OC)cc2CCN1C(C)=O | 107 to 109
CCCCCC(=O)OCCCC | -64.3
C=C[N+](=O)[O-] | -55.5
CCCc1c(C(=O)O)cnn1-c1cc(Cl)cc(Cl)c1 | 169 to 171
CCOC1Oc2ccc(OS(C)(=O)=O)cc2C1(C)C (configuration not stated) | 71
Cc1ccccc1C=C1C(=O)OC(C)(C)OC1=O | 142
COc1ccc(-n2c(SC)nc3nc(SC)n(C)c3c2=O)cc1 | 213 to 214
CCSc1nnc(N)s1 | 133 to 136
Cc1cc(CS)c(CS)cc1C | 64 to 69
CCOC(=O)c1ccsc1N | 42 to 44
Cc1cc(C)n2nc(N)c(/N=N/c3cccnc3)c2n1 | 245

SMILES | melting point [°C]
Cc1nc(-c2cnccn2)sc1C(=O)CBr | 100
CCc1ccc(CCl)cc1 | -21
Brc1nc(Br)c(Br)c(Br)c1Br | 206 to 208
N#Cc1cccc(Cn2c(=O)oc3ccccc32)c1 | 170 to 172
C=CCCCCCCCCC(=O)OC | -27.5
N#Cc1ncc(Cl)cc1Cl | 101
Cc1ccc(S(=O)(=O)NCCCC[C@H](N)C(=O)O)cc1 | 231 to 234
O=C1CCCC1C1CCCC1 (configuration not stated) | -13
O=C1OC(=O)c2c(F)ccc(F)c21 | 217 to 221
O=Cc1ccccc1OC1CCOCC1 | 67 to 70
O=[N+]([O-])c1ccccc1CBr | 47
CC1=C(C(=O)O)N2C(=O)C(NC(=O)C(N)c3ccccc3)C2SC1 (configuration not stated) | 327
NC(CO)Cc1ccccc1 (configuration not stated) | 91.5
O=[N+]([O-])c1ccc(-c2nnc(S)s2)o1 | 175 to 177
COc1cc(Br)c(C=O)cc1OC | 150
O=C(O)c1cccc2nsnc12 | 198 to 200
CCOC(=O)c1csc(C2COc3ccccc3O2)n1 (configuration not stated) | 66.5 to 69.8
Nc1ccc2ccccc2c1S(=O)(=O)O | 180
CN(C)CCCOc1ccccc1CO | 55 to 57
O=[N+]([O-])c1ccc(CBr)cc1 | 99
O=C(O)c1c(F)c(F)c(F)c(F)c1C(=O)O | 163
CSc1ncnc2c1cnn2-c1ccccc1 | 115 to 117
O=C(c1ccccc1O)N1CCOCC1 | 175
